According to ChEMBL document CHEMBL1201862, “PubChem BioAssay data set” (2004):
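Five concentrations, 48 hours, 96-well plates. GI50 is the concentration that inhibits growth by half.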 Active and inactive are the calls of the source. Rule as the data show it: active = GI50 up to about 1.1 µM and inactive = higher.

Experiments:
Test in all cases: DTP human tumour cell line panel, 48 h
A549 = system: A549
SF-268 = system: SF-268
SN12C = system: SN12C
SNB-19 = system: SNB-19
UO-31 = system: UO-31
HL-60 = system: HL-60
T47D = system: T47D
NCI-H226 = system: NCI-H226
SK-MEL-5 = system: SK-MEL-5
HCT-15 = system: HCT-15
SW-620 = system: SW-620
A498 = system: A498
IGROV-1 = system: IGROV-1
SK-MEL-28 = system: SK-MEL-28
SR = system: SR
786-0 = system: 786-0
SK-MEL-2 = system: SK-MEL-2
MDA-N = system: MDA-N
CAKI-1 = system: CAKI-1

| SMILES | GI50 (A549) | GI50 (SF-268) | GI50 (SN12C) | GI50 (SNB-19) | GI50 (UO-31) | GI50 (HL-60) | GI50 (T47D) | GI50 (NCI-H226) | GI50 (SK-MEL-5) | GI50 (HCT-15) [µM] | GI50 (SW-620) | GI50 (A498) | GI50 (IGROV-1) | GI50 (SK-MEL-28) | GI50 (SR) | GI50 (786-0) | GI50 (SK-MEL-2) | GI50 (MDA-N) | GI50 (CAKI-1) |
| --- | --- | --- | --- | --- | --- | --- | --- | --- | --- | --- | --- | --- | --- | --- | --- | --- | --- | --- | --- |
| COC(=O)CCN(CCC(=O)OC)C1CC1 | > 100 µM (inactive) | > 100 µM (inactive) | > 100 µM (inactive) | > 100 µM (inactive) | 76.7 µM (inactive) | > 100 µM (inactive) | > 100 µM (inactive) | > 100 µM (inactive) | > 100 µM (inactive) | > 100 | > 100 µM (inactive) | > 100 µM (inactive) | > 100 µM (inactive) | > 100 µM (inactive) | > 100 µM (inactive) | > 100 µM (inactive) |  |  |  |
| Nc1c(Cl)ncnc1NCC1(CO)CCC1 | > 100 µM (inactive) | > 100 µM (inactive) | > 100 µM (inactive) |  | > 100 µM (inactive) | > 100 µM (inactive) |  | > 100 µM (inactive) | 79.4 µM (inactive) | > 100 | > 100 µM (inactive) | > 100 µM (inactive) | > 100 µM (inactive) | > 100 µM (inactive) | > 100 µM (inactive) | > 100 µM (inactive) | > 100 µM (inactive) | > 100 µM (inactive) |  |
| C(=C\c1cc[n+](CCc2ccccc2)cc1)/c1ccccc1 | 5.64 µM (inactive) | 18.1 µM (inactive) | 4.02 µM (inactive) | 12.7 µM (inactive) | > 100 µM (inactive) |  | 5.58 µM (inactive) | 13.8 µM (inactive) | 1.28 µM (inactive) | > 100 | 12.1 µM (inactive) |  | 31.7 µM (inactive) | 10.6 µM (inactive) |  | 21.8 µM (inactive) | 17.1 µM (inactive) |  | 22.4 µM (inactive) |
| CN1CC[C@]23c4c5ccc(O)c4OC2c2[nH]ncc2C[C@H]3[C@H]1C5 (some centres undefined) | > 100 µM (inactive) | > 100 µM (inactive) | > 100 µM (inactive) | > 100 µM (inactive) | > 100 µM (inactive) | > 100 µM (inactive) | > 100 µM (inactive) | > 100 µM (inactive) | > 100 µM (inactive) | > 100 |  |  | > 100 µM (inactive) | > 100 µM (inactive) | > 100 µM (inactive) | > 100 µM (inactive) | > 100 µM (inactive) |  | > 100 µM (inactive) |
| CN(/N=C\c1ccc2ccccc2c1)C1=NCCN1 | 15.8 µM (inactive) | 27.5 µM (inactive) |  |  | 13.2 µM (inactive) | 10.4 µM (inactive) | 26.2 µM (inactive) | 16.3 µM (inactive) | 14.3 µM (inactive) | 25.2 | 19.1 µM (inactive) | 12.1 µM (inactive) | 19.5 µM (inactive) | 13.6 µM (inactive) | 17.3 µM (inactive) | 15.6 µM (inactive) | 15.2 µM (inactive) |  | 10.3 µM (inactive) |
| CN(CCCNC(=O)c1nn(C)c2c1Cc1ccccc1-2)CCCNC(=O)c1nn(C)c2c1Cc1ccccc1-2 | 16.5 µM (inactive) | 19.2 µM (inactive) | 16.5 µM (inactive) | 9.53 µM (inactive) | 0.614 µM (active) | 5.28 µM (inactive) | 22.5 µM (inactive) |  | 13.5 µM (inactive) | 17.7 | 10.1 µM (inactive) | 17 µM (inactive) | 15.3 µM (inactive) | 20.1 µM (inactive) | 2.99 µM (inactive) | 10.7 µM (inactive) | 16 µM (inactive) |  | 18.7 µM (inactive) |
| O=C(NNC(c1ccccc1)C(F)(F)F)c1ccncc1 (centres undefined) | > 100 µM (inactive) | > 100 µM (inactive) | > 100 µM (inactive) | > 100 µM (inactive) |  | > 100 µM (inactive) |  | > 100 µM (inactive) | > 100 µM (inactive) | > 100 | > 100 µM (inactive) |  | > 100 µM (inactive) | > 100 µM (inactive) | > 100 µM (inactive) | > 100 µM (inactive) | > 100 µM (inactive) |  | > 100 µM (inactive) |
| COc1ccc2c(c1)C1c3ccccc3CCN1CCC2 (centres undefined) | 51.2 µM (inactive) | 56.6 µM (inactive) | 71.1 µM (inactive) | 55.2 µM (inactive) | 26.9 µM (inactive) |  | > 100 µM (inactive) | 45.3 µM (inactive) | 29.2 µM (inactive) | 39.4 | 28.2 µM (inactive) | 69.3 µM (inactive) | 56.6 µM (inactive) | 74 µM (inactive) | 32.2 µM (inactive) | 42.1 µM (inactive) | 23.1 µM (inactive) |  | > 100 µM (inactive) |
| O=C1c2cccc3cccc(c23)C(=O)N1CCCNOCCONCCCN1C(=O)c2cccc3cccc(c23)C1=O | 95.9 µM (inactive) | 79.4 µM (inactive) |  | 47.9 µM (inactive) | 45.5 µM (inactive) | 4.84 µM (inactive) |  | 74.6 µM (inactive) | 58.5 µM (inactive) | 44 | 66.4 µM (inactive) | > 100 µM (inactive) | 62.8 µM (inactive) | > 100 µM (inactive) | 81.7 µM (inactive) | 33.5 µM (inactive) | > 100 µM (inactive) | > 100 µM (inactive) | 49.3 µM (inactive) |
| Cc1ccccc1Nc1cn(COCc2ccccc2)c(=O)[nH]c1=O | 81.3 µM (inactive) | 70.6 µM (inactive) | > 100 µM (inactive) | > 100 µM (inactive) | 52.4 µM (inactive) | > 100 µM (inactive) |  |  | 55 µM (inactive) | > 100 | > 100 µM (inactive) | > 100 µM (inactive) | 33 µM (inactive) | > 100 µM (inactive) |  | > 100 µM (inactive) |  | > 100 µM (inactive) | > 100 µM (inactive) |
| Cc1ccc(S(=O)(=O)Oc2nc3ccccc3nc2N(S(=O)(=O)c2ccc(C)cc2)S(=O)(=O)c2ccc(C)cc2)cc1 | 85.1 µM (inactive) | 50.6 µM (inactive) | 44 µM (inactive) | 66.8 µM (inactive) | 61.8 µM (inactive) | 33 µM (inactive) |  | 22.5 µM (inactive) | 47.9 µM (inactive) | 31 | 34.8 µM (inactive) | 89.9 µM (inactive) | 92.3 µM (inactive) | 55.6 µM (inactive) |  | 38.6 µM (inactive) | 81.8 µM (inactive) | 45 µM (inactive) | 72.4 µM (inactive) |
| Cc1ccc(-c2n[nH]c(=O)n2N2C(=O)C=CC2=O)cc1 | > 100 µM (inactive) | > 100 µM (inactive) | > 100 µM (inactive) |  |  | > 100 µM (inactive) | > 100 µM (inactive) | > 100 µM (inactive) | > 100 µM (inactive) | > 100 |  | > 100 µM (inactive) | > 100 µM (inactive) |  | > 100 µM (inactive) | > 100 µM (inactive) | > 100 µM (inactive) |  | > 100 µM (inactive) |
| CCOC(=O)C1=C(C)N(c2ccc(C)cc2)C2(O)C=CC(O)=C3C(=O)c4ccccc4C(=O)C312 (centres undefined) | 37.8 µM (inactive) | 45.2 µM (inactive) | 32.4 µM (inactive) | 24.4 µM (inactive) | 17.7 µM (inactive) | < 0.01 µM (active) |  | 59.3 µM (inactive) | 19.7 µM (inactive) | 22.8 | 28.1 µM (inactive) | 29.4 µM (inactive) | 19.5 µM (inactive) | 24.9 µM (inactive) | 0.635 µM (active) | 33.9 µM (inactive) | 37.1 µM (inactive) | 21.1 µM (inactive) | 32.2 µM (inactive) |
